From ChEMBL document CHEMBL1201862, “PubChem BioAssay data set” (2004)
Activity calls are given as the source filed them. Rule as the data show it, for most assays here: actives have a measured EC50 and inactives only a lower limit.

Assays:
[1] = biological target: T1, Heat shock factor protein 1 (Mus musculus, UniProt P38532); assay: HSF1 potentiators in luciferase reporter cells, confirmation, cell-based, NIH3T3, luminescence, dose retest (AID 435004); format: functional;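 also: stress induced by proteasome inhibitor MG132 added 30 min after compound; luciferase reporter driven by HSF1 response element in NIH3T3 cells; actives raise luminescence as potentiators of the MG132 stress response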
T1 sequence (P38532 whole entry): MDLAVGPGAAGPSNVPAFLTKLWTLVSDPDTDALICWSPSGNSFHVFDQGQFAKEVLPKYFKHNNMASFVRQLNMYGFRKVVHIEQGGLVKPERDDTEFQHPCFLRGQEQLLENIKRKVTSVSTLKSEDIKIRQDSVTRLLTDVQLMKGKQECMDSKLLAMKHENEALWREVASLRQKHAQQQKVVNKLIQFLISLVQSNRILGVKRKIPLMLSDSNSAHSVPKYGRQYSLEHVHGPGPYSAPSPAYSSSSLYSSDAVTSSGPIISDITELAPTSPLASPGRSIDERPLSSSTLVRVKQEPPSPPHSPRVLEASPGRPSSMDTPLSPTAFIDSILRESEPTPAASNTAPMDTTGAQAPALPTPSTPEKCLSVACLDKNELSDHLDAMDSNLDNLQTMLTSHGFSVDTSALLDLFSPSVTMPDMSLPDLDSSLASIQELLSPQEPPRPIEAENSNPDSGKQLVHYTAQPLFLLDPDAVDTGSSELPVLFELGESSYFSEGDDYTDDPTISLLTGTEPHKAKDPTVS

[2] = Luminescence Cell-Based Dose Confirmation HTS to Identify Activators of 5'UTR Stem-Loop Driven Alpha-Synuclein mRNA Translation in H4 Neuroglioblastoma Cells. [Related pubchem assays: 1829 (Project Summary), 1814 (Primary HTS)]; format: functional
[3] = Luminescence Cell-Based Dose Response HTS to Identify Activators of Luciferase Translation or Activity in H4 […] Cells. [Related pubchem assays: 1829 (Project Summary), 1814 (Primary HTS)]; format: functional
H4 = assay: Luminescence Cell-Based Dose Response HTS to Identify Activators of 5'UTR Stem-Loop Driven Prion Protein mRNA Translation in H4 Neuroglioblastoma Cells. [Related pubchem assays: 1829 (Project Summary), 1814 (Primary HTS)]; format: functional; conditions: Homo sapiens
[4] = biological target: T2, Corticotropin-releasing factor receptor 2/Corticotropin-releasing factor-binding protein (Homo sapiens, UniProt P24387+Q13324); assay: Dose Response confirmation of uHTS hits for small molecule antagonists of the CRF-binding protein and CRF-R2 receptor complex.; format: functional; conditions: read-out: IC50_Mean
T2 sequence (Q13324 whole entry): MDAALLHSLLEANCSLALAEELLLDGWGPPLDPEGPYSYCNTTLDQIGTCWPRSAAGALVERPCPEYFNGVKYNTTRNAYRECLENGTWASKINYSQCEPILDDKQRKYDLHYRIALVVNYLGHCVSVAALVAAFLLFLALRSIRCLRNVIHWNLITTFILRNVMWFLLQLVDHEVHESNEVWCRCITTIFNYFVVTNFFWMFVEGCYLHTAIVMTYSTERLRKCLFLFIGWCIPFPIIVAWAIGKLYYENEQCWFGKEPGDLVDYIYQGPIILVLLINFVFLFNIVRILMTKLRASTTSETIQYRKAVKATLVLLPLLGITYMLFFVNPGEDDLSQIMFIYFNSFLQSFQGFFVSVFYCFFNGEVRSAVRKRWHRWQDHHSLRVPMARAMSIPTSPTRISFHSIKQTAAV
T2 sequence (P24387 whole entry): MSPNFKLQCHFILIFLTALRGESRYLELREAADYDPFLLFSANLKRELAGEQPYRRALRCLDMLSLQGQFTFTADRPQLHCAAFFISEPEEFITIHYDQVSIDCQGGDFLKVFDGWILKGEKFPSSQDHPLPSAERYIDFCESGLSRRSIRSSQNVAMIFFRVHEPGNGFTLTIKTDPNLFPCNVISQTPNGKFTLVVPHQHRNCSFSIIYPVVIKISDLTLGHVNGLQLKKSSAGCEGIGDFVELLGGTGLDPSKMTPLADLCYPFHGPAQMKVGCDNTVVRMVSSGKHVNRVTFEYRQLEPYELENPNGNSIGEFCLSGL

Streptokinase A = biological target: T3, Streptokinase A (Streptococcus pyogenes serotype M1, UniProt P10520); assay: S. pyogenes streptokinase expression inhibitors, potency, dose response, plasminogen activation absorbance, OD405 (AID 1914); format: functional, Streptococcus pyogenes M1 GAS;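 also: secreted streptokinase activity via plasminogen activation per viability signal from cell pellet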
T3 sequence (P10520 whole entry): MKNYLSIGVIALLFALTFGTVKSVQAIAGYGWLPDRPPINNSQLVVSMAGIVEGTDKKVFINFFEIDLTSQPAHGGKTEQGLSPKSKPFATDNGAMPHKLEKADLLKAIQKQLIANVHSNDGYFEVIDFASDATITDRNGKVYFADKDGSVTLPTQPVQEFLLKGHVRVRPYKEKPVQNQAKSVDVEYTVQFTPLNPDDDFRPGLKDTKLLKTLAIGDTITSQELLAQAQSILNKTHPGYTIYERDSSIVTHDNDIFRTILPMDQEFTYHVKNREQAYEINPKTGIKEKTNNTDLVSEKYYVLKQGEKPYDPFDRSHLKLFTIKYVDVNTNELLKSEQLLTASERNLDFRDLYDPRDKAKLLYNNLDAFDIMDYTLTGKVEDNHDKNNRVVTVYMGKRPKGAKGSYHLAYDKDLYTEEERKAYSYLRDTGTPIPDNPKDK

[5] = tested on: Streptococcus sp. 'group A'; assay: growth inhibition of control SK(-) GAS strain, dose response, counter-screen for streptokinase expression inhibitor project, luminescence, kanamycin, BacTiterGlo, confirmation (AID 1900); format: functional, organism-based
Streptococcus = assay: Group A Streptococcus viability loss, dose response, counter-screen for streptokinase expression inhibitor project, luminescence, BacTiterGlo (AID 1915); format: functional, organism-based;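 also: potency for reduction of bacterial viability or growth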
[6] = C. albicans growth with fluconazole, confirmation, fluorescence, retest (AID 2467); format: functional, cell-based
[7] = NIH-3T3 fibroblast cytotoxicity, dose response, cytotoxicity control, cell-based, fluorescence, Alamar Blue, secondary assay (AID 2327); format: functional;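 also: NIH-3T3 mouse fibroblasts cultured with fluconazole at 8 µg/mL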
[8] = biological target: T2, Corticotropin-releasing factor receptor 2/Corticotropin-releasing factor-binding protein; assay: activators of CRF receptor 2 with binding protein – uHTS hits, confirmation (AID 602473); format: functional; conditions: read-out: EC50_Mean
Paired box protein Pax-8 = Paired box protein Pax-8 (Homo sapiens, UniProt Q06710); assay: inhibitors of PAX8-driven TPO luciferase reporter, dose response, RMG-I cells, cherry-pick (AID 687027); format: functional, cell-based;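 also: luciferase reporter driven by Pax8 target thyroperoxidase promoter measured by SteadyGlo luminescence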
Sequence of Paired box protein Pax-8 (Q06710 whole entry): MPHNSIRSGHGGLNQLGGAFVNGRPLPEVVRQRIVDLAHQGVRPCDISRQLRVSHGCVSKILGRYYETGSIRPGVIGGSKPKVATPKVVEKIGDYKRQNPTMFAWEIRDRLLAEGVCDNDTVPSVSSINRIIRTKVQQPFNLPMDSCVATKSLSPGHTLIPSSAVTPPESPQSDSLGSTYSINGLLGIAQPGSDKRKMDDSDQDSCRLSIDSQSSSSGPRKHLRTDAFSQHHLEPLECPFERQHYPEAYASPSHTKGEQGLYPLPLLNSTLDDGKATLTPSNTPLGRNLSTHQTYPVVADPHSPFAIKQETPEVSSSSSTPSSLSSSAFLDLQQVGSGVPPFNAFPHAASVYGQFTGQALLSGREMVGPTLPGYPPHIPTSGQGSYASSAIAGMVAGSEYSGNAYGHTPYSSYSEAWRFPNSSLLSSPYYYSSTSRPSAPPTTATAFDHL

[9] = cytotoxicity toward NIH3T3 fibroblasts, dose response, counter-screen, cell-based, ATP luminescence, mouse fibroblasts (AID 2010); format: functional;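 also: cells exposed to compound for about 90 hours before reading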
[10] = inhibitors of intracellular T. cruzi replication, confirmation, NIH3T3 host cells, beta-gal luminescence (AID 2044); format: functional, cell-based;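 also: intracellular parasites grown in NIH/3T3 mouse fibroblasts as host cells; luminescent beta-galactosidase reporter signal from transgenic T. cruzi replicating inside host cells; inhibitors lower the luminescence signal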
INS1 = assay: beta cell apoptosis inhibitors, cytokine rescue, dose response, luminescence, retest (AID 449756); format: functional, cell-based; conditions: Rattus norvegicus;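 also: cell death triggered by IL-1 beta plus TNF-alpha plus IFN-gamma mixture; protective hits raise ATP signal compared with cytokine alone wells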
[11] = inhibitors of firefly luciferase expression or activity, dose response, H4 neuroglioma cells, luminescence (AID 1990); format: functional, cell-based
[12] = inhibitors of SNCA 5'UTR-driven reporter translation, confirmation, H4 neuroglioma cells, luminescence (AID 1988); format: functional, cell-based
[13] = Luminescence Cell-Based Dose Response HTS to Identify Inhibitors of 5'UTR Stem-Loop Driven Prion Protein mRNA Translation in H4 Neuroglioblastoma Cells. [Related pubchem assays: 1827 (Project Summary), 1813 (Primary HTS)]; format: functional

Compound | EC50 [1] | EC50 [2] | EC50 [3] | EC50 (H4) | also measured
Cc1c(C(=O)N(Cc2ccncc2)CC2CCCO2)oc2c(F)cccc12 (stereo not drawn) | > 260 µM (inactive) | – | – | – | –
CSc1nsc(SCC(=O)Nc2ccc(C(C)=O)cc2)n1 | – | 4.49 µM (active) | 23.5 µM (active) | 6.18 µM (active) | –
COC(=O)c1cn(CCOc2ccccc2)c2ccccc12 | – | 6.67 µM (active) | 10.2 µM (active) | 12.9 µM (active) | –
CN1C(=O)C2C=CC1C1C(=O)N(c3ccccc3)C(=O)C21 (stereo not drawn) | – | 0.128 µM (active) | 0.45 µM (active) | 0.209 µM (active) | –
COc1ccc(N2C(S)=NC3N2C(S)=NC3(C)c2ccccc2)cc1 (stereo not drawn) | – | 18.1 µM (active) | 35 µM (active) | 53.5 µM (active) | –
CCOC(=O)C1CCN(C(=O)CN2C(=O)COc3ccc(C(C)(C)C)cc32)CC1 | – | > 120 µM (not active) | > 120 µM (not active) | > 120 µM (not active) | –
O=C(O)c1cnc(-c2ccccc2)nc1Sc1ccc(Cl)cc1Cl | – | – | – | – | IC50 [4]: 1.85 µM (active); EC50 (Streptokinase A): 18.8 µM (active); EC50 [5]: 15.4 µM (active); EC50 (Streptococcus): > 150 µM (not active); EC50 [6]: 0.13 µM (active); EC50 [7]: 57.8 µM (active); EC50 [8]: > 53 µM (inactive)
CCN(CC)S(=O)(=O)c1ccc(OC)c(NC(=O)c2cc3c(=O)n4ccccc4nc3s2)c1 | > 260 µM (inactive) | – | – | – | –
CCN1CCN(C(CNC(=O)c2ccc3c(c2)OCO3)c2cccnc2)CC1 (stereo not drawn) | – | > 120 µM (not active) | 11.5 µM (active) | 15.6 µM (active) | –
O=C(NC1CCCCC1)C(c1cccs1)N(C(=O)Cc1c[nH]c2ccccc12)c1ccc(F)cc1 (stereo not drawn) | – | – | – | – | AC50 (Paired box protein Pax-8): 11.7 µM (active); EC50 [9]: 9.47 µM (active); EC50 [10]: 0.871 µM (active)
CC(C)(C)C1CCC(OC(=O)CN2CCOCC2)CC1 (stereo not drawn) | – | 13.5 µM (active) | 8.04 µM (active) | 19.6 µM (active) | –
Cc1ccc(O)c(C(=O)c2cnc3c(c2)CN(CCC(C)C)C(=O)N3)c1 | > 260 µM (inactive) | – | – | – | –
CN(C)CCCN(C(=O)CCOc1ccccc1)c1nc2c(F)cccc2s1 | – | – | – | – | AC50 (Paired box protein Pax-8): 7.17 µM (active); EC50 [9]: 7.17 µM (active); EC50 [10]: 0.152 µM (active)
Cc1ccc2nc(-c3ccc4c(c3)OCCO4)cc(C(=O)O)c2c1 | > 260 µM (inactive) | – | – | – | –
CC(C)(C)CN1CCC(Oc2cccc(C(=O)NCCCOc3cccnc3)c2)CC1 | – | – | – | – | AC50 (INS1): 1.25 µM (active)
CCO[C@@H]1OC(C(=O)NCc2nc3ccccc3[nH]2)=C[C@H](C2CC2)[C@H]1CCCO | – | > 120 µM (not active) | > 120 µM (not active) | > 120 µM (not active) | –
CN(Cc1ccccc1)C(=O)CCC1CCN(C(=O)CC2=CCCCC2)CC1 | > 260 µM (inactive) | – | – | – | –
CC(Nc1cc(N2CCNCC2)ccc1[N+](=O)[O-])c1ccccc1 (stereo not drawn) | > 260 µM (inactive) | – | – | – | EC50 [11]: > 120 µM (not active); EC50 [12]: 33.7 µM (active); EC50 [13]: > 120 µM (not active)
Cc1cc(O)c2c(c1)C(=O)C13C(=C2O)C(=O)[C@H]2[C@@H](O)[C@@H]1[C@H]1[C@H](O)[C@@H]3C(=O)C3=C(O)c4c(O)cc(C)cc4C(=O)C312 (stereo partly drawn) | – | – | – | – | AC50 (INS1): 7.65 µM (active)
Cc1cccc(C2c3[nH]c4ccccc4c3CCN2Cc2cnn(-c3ccc(F)cc3)c2)n1 (stereo not drawn) | > 260 µM (inactive) | – | – | – | –
Cn1nnnc1SCC(=O)Nc1nc2ccccc2s1 | – | 8.16 µM (active) | 8.98 µM (active) | 33.4 µM (active) | –
O=C(NC1CCCCC1)C1CCCN1S(=O)(=O)c1cccc2nsnc12 (stereo not drawn) | > 260 µM (inactive) | – | – | – | –
CCCCc1ccc(-c2ccc(Br)cc2)nc1 | > 260 µM (inactive) | – | – | – | –
CN(C)c1ccc(N=Nc2ccccc2C(=O)OCC(=O)N(C)C2CCCCC2)cc1 | – | 85.5 µM (active) | 84.2 µM (active) | 51.8 µM (active) | –
COc1c2c(cc3oc(=O)c4c5ccc(O)cc5oc4c13)OC(C)(C)CC2 [ISOGLYCYROL] | – | 0.274 µM (active) | 3.13 µM (active) | – | –
Nc1ccccc1-[n+]1c(-c2ccccc2)cc(-c2ccccc2)cc1-c1ccccc1.[O-][Cl+3]([O-])([O-])[O-] | – | – | – | – | EC50 [9]: > 60 µM (not active); EC50 [10]: 0.114 µM (active); EC50 [6]: 0.843 µM (active); EC50 [7]: > 150 µM (inactive)
